Assay results as given in the Deep4Chem optical property database.
One block for each compound: values may come before it.

Test: photoluminescence quantum yield (fraction); solvent given as SMILES

Structure (SMILES): COCCOCCOCCOCC(COCCOCCOCCOC)Oc1cc(/C=C/c2ccc(C=C3C(=O)c4ccccc4C3=O)cc2)c(OC(COCCOCCOCCOC)COCCOCCOCCOC)cc1/C=C/c1ccc(C=C2C(=O)c3ccccc3C2=O)cc1
photoluminescence quantum yield (in ClCCl): 0.23

Structure (SMILES): CCCCC(CC)CN1C(=O)c2cc(Oc3ccc(C(C)(C)C)cc3)c3c4c(Oc5ccc(OC)cc5)cc5c6c(cc(Oc7ccc(OC)cc7)c(c7c(Oc8ccc(C(C)(C)C)cc8)cc(c2c37)C1=O)c64)C(=O)N(c1c(C(C)C)cccc1C(C)C)C5=O (stereo not given)
photoluminescence quantum yield (in Cc1ccccc1): 0.57

Structure (SMILES): CCCCCCCCCCCCC(CCCCCCCCCC)Cn1c2cc(C=C(C#N)C#N)c3cccc4c5cccc6c(C=C(C#N)C#N)cc1c(c65)c2c34 (stereo not given)
photoluminescence quantum yield (in C1CCCCC1): 0.13
photoluminescence quantum yield (in CC#N): 0.151
photoluminescence quantum yield (in Cc1ccccc1): 0.138
photoluminescence quantum yield (in ClCCl): 0.115

Structure (SMILES): F[B-]1(F)n2c(Nc3cccc4cccnc34)ccc2C(c2ccccc2)=C2C=CC(Cl)=[N+]21
photoluminescence quantum yield (in C1CCCCC1): 0.17
photoluminescence quantum yield (in CC#N): 0.0024
photoluminescence quantum yield (in Cc1ccccc1): 0.04
photoluminescence quantum yield (in ClC(Cl)Cl): 0.01

Structure (SMILES): CCCCCCCN1C(=CC2=C([O-])C(=Cc3sc4ccccc4[n+]3CCCCCCC)C2=C(C#N)C#N)Sc2ccccc21
photoluminescence quantum yield (in C1COCCO1): 0.09
photoluminescence quantum yield (in CCO): 0.14
photoluminescence quantum yield (in CN(C)C=O): 0.14
photoluminescence quantum yield (in ClC(Cl)Cl): 0.13

Structure (SMILES): CC(=O)c1c(N[C@H](C(=O)O)C(C)C)c2ccc(N(C)C)cc2oc1=O
photoluminescence quantum yield (in ClCCl): 0.004

Structure (SMILES): N#Cc1nc(N(Cc2ccc(Br)cc2)Cc2ccc(Br)cc2)c(C#N)nc1N(Cc1ccc(Br)cc1)Cc1ccc(Br)cc1
photoluminescence quantum yield (in ClC(Cl)Cl): 0.71

Structure (SMILES): CCCC1=Cc2nc1ccc1[nH]c(cc1CCC)c1nc(c(NC(C)=O)cc3[nH]c2cc3CCC)C(CCC)=C1
photoluminescence quantum yield (in Cc1ccccc1): 0.1

Structure (SMILES): O=C(O)c1ccc2ccc3cccc4ccc1c2c34
photoluminescence quantum yield (in C1CCOC1): 0.57
photoluminescence quantum yield (in CC#N): 0.11
photoluminescence quantum yield (in CCCCCC): 0.56
photoluminescence quantum yield (in CCO): 0.038
photoluminescence quantum yield (in CN(C)C=O): 0.003
photoluminescence quantum yield (in CO): 0.097
photoluminescence quantum yield (in Cc1ccccc1): 0.73
photoluminescence quantum yield (in ClCCl): 0.63

Structure (SMILES): c1ccc(-c2nc(-c3ccccc3)nc(-c3cc(-n4c5ccccc5c5ncccc54)c(-n4c5ccccc5c5ncccc54)c(-n4c5ccccc5c5ncccc54)c3)n2)cc1
photoluminescence quantum yield (in O=P(c1ccccc1)(c1ccccc1)c1ccc2oc3ccc(P(=O)(c4ccccc4)c4ccccc4)cc3c2c1): 0.54

Structure (SMILES): COc1ccc(/C=C/C2=CC(/C=C/c3ccc(OC)c4ccccc34)=[O+][B-](F)(F)O2)c2ccccc12
photoluminescence quantum yield (in CC#N): 0.12
photoluminescence quantum yield (in CC(C)=O): 0.21
photoluminescence quantum yield (in CCOC(C)=O): 0.31
photoluminescence quantum yield (in CCOCC): 0.29
photoluminescence quantum yield (in ClC(Cl)(Cl)Cl): 0.23
photoluminescence quantum yield (in ClCCl): 0.39

Structure (SMILES): F[B-]1(F)n2c(c3cccc4cccc2c43)=Nc2ccc3ccccc3[n+]21
photoluminescence quantum yield (in C1CCOC1): 0.98
photoluminescence quantum yield (in CC#N): 0.99
photoluminescence quantum yield (in CCCCCC): 0.63
photoluminescence quantum yield (in Cc1ccccc1): 0.99
photoluminescence quantum yield (in ClCCl): 0.99

Structure (SMILES): CC(C)(C)c1ccc2c(c1)B1c3cc(C(C)(C)C)ccc3Oc3cc(-n4c5ccccc5c5c6c(c7ccccc7n6-c6ccccc6)c6c(c7ccccc7n6-c6ccccc6)c54)cc(c31)O2
photoluminescence quantum yield (in Cc1ccccc1): 0.99

Structure (SMILES): CCCCCCN1C(=O)c2cccc3c(-c4ccc(OC)s4)ccc(c23)C1=O
photoluminescence quantum yield (in ClC(Cl)Cl): 0.65

Structure (SMILES): CC1(C)CC(/N=C/c2ccc3ccc4cccc5ccc2c3c45)CC(C)(C)N1[O]
photoluminescence quantum yield (in C1CCCCC1): 0.11
photoluminescence quantum yield (in CC#N): 0.01
photoluminescence quantum yield (in CO): 0.03
photoluminescence quantum yield (in ClC(Cl)Cl): 0.02

Structure (SMILES): CCCC1(CCC)c2cc(-c3ccc(C(C)(C)C)cc3)ccc2-c2ccc(-c3ccc4c(c3)C(CCC)(CCC)c3cc(-c5ccc6c(c5)C(CCC)(CCC)c5cc(-c7ccc(C(C)(C)C)cc7)ccc5-6)ccc3-4)cc21
photoluminescence quantum yield (in C1CCCCC1): 0.9

Structure (SMILES): C(=C\c1ccc(/C=C/c2ccc(N(c3ccccc3)c3ccccc3)cc2)cc1)/c1ccc(/C=C/c2ccc(N(c3ccccc3)c3ccccc3)cc2)cc1
photoluminescence quantum yield (in ClCCl): 0.84

Structure (SMILES): CC1(C)OB(c2cc3ccc4cccc5ccc(c2)c3c45)OC1(C)C
photoluminescence quantum yield (in Cc1ccccc1): 0.72

Structure (SMILES): N#CC1=c2cc3c4c(c2Oc2c1cc1c5c2CCCN5CCC1)CCC[N+]=4CCC3
photoluminescence quantum yield (in CCO): 0.25

Structure (SMILES): CCOc1ccc(/C=C/C=C/C=C/c2ccc([N+](=O)[O-])cc2)cc1
photoluminescence quantum yield (in CC1CCCCC1): 0.22
photoluminescence quantum yield (in CC#N): 0.017
photoluminescence quantum yield (in Cc1ccccc1): 0.5
photoluminescence quantum yield (in ClCCl): 0.068

Structure (SMILES): C1=[N+](c2ccccc2)[B-](c2ccccc2)(c2ccccc2)Oc2c1ccc1c3c(ccc21)C=[N+](c1ccccc1)[B-](c1ccccc1)(c1ccccc1)O3
photoluminescence quantum yield (in Cc1ccccc1): 0.7
photoluminescence quantum yield (in ClCCl): 0.76

Structure (SMILES): c1cc(-c2ccc3c(c2)CCCO3)ccc1-c1ccc2c(c1)CCCO2
photoluminescence quantum yield (in C1CCCCC1): 0.6

Structure (SMILES): CC1(C)c2ccccc2N(c2ccc(-c3nnc(-c4ccc(-n5c6ccccc6c6ccccc65)cc4)o3)cc2)c2ccccc21
photoluminescence quantum yield (in O=P(c1ccccc1)(c1ccccc1)c1ccccc1Oc1ccccc1P(=O)(c1ccccc1)c1ccccc1): 0.67

Structure (SMILES): CN1c2ccc(C(=O)c3ccccc3)cc2Sc2cc(C(=O)c3ccccc3)ccc21
photoluminescence quantum yield (in C1CCCCC1): 0.43
photoluminescence quantum yield (in C1CCOC1): 0.28
photoluminescence quantum yield (in CN(C)C=O): 0.18
photoluminescence quantum yield (in Cc1ccccc1): 0.4
photoluminescence quantum yield (in ClC(Cl)Cl): 0.21
photoluminescence quantum yield (in ClCCl): 0.23

Structure (SMILES): CCCCCCCCC1(CCCCCCCC)c2ccccc2-c2ccc(-c3nnc(-c4cccc(-n5c6ccc(C(C)(C)C)cc6c6cc(C(C)(C)C)ccc65)c4)o3)cc21
photoluminescence quantum yield (in Cc1ccccc1): 0.13

Structure (SMILES): CC(C)c1cc(C(C)C)c(B2c3ccccc3Oc3cc(N4c5ccccc5C(C)(C)c5ccccc54)ccc32)c(C(C)C)c1
photoluminescence quantum yield (in Cc1ccccc1): 1

Structure (SMILES): O=C1NC(=O)C(c2c[nH]c3ccccc23)=C1c1c[nH]c2ccccc12
photoluminescence quantum yield (in C1CCOC1): 0.24
photoluminescence quantum yield (in CC#N): 0.1
photoluminescence quantum yield (in CC(C)OC(C)C): 0.28
photoluminescence quantum yield (in CCCCOCCCC): 0.22
photoluminescence quantum yield (in CCO): 0.003
photoluminescence quantum yield (in CCOC(C)=O): 0.21
photoluminescence quantum yield (in CN(C)C=O): 0.13
photoluminescence quantum yield (in Cc1ccccc1): 0.28
photoluminescence quantum yield (in ClCCl): 0.21

Now from value to compound:

photoluminescence quantum yield (in ClCCl): 0.635
Structure (SMILES): CC1=CC(C)=[N+]2C1=C(c1c(-c3ccccn3)nc3ccccn13)c1c(C)cc(C)n1[B-]2(F)F

photoluminescence quantum yield (in ClCCl): 0.42
Structure (SMILES): C[Si]1(C)O[Si](C)(C)c2cc3nc4ccccc4c(-c4ccccc4)c3cc2[Si](C)(C)O1

photoluminescence quantum yield (in CC#N): 0.234
photoluminescence quantum yield (in CCCCCC): 0.142
photoluminescence quantum yield (in CO): 0.161
photoluminescence quantum yield (in ClC(Cl)Cl): 0.312
Structure (SMILES): c1ccc2c(c1)cc(-c1cc(-c3nccs3)nc(-c3nccs3)c1)c1ccccc12

photoluminescence quantum yield (in CO): 0.03
Structure (SMILES): N[C@@H](Cn1nnc2cc(-c3ccc(-c4ccsc4)cc3)ccc21)C(=O)O

photoluminescence quantum yield (in ClC(Cl)Cl): 0.06
Structure (SMILES): c1cc2cc(c1)c1cccc(c1)c1cccc(c1)c1cccc(c1)c1cccc(c1)c1cccc2c1

photoluminescence quantum yield (in ClC(Cl)Cl): 0.37
Structure (SMILES): CCCN1c2ccccc2Sc2cc(/C=C\c3cc(=O)oc4c(O)c(O)ccc34)ccc21

photoluminescence quantum yield (in ClCCl): 0.55
Structure (SMILES): C(#Cc1nc(C#Cc2ccccc2)c(C#Cc2ccccc2)c(C#Cc2ccccc2)c1C#Cc1ccccc1)c1ccccc1

photoluminescence quantum yield (in CC#N): 0.56
photoluminescence quantum yield (in CCCCCC): 0.12
photoluminescence quantum yield (in CO): 0.5
photoluminescence quantum yield (in c1ccccc1): 0.46
Structure (SMILES): O=c1oc2ccc3ccccc3c2nc1-c1ccccc1

photoluminescence quantum yield (in ClCCl): 0.209
Structure (SMILES): O=c1cc(-c2nc3ccccn3c2NC2CCCCC2)occ1OCc1ccccc1

photoluminescence quantum yield (in C1CCOC1): 0.0137
Structure (SMILES): C1=C(c2ccccc2)C(c2ccccc2)=CC1c1ccccc1

photoluminescence quantum yield (in CC#N): 0.066
Structure (SMILES): C[n+]1cc2ccc3c[n+](C)c4ccccc4c3c2c2ccccc21

photoluminescence quantum yield (in C1CCOC1): 0.17
Structure (SMILES): F[Si](c1ccccc1)(c1c2ccccc2cc2ccccc12)c1c2ccccc2cc2ccccc12

photoluminescence quantum yield (in ClC(Cl)Cl): 0.52
Structure (SMILES): N#CC1=CC(Br)=CC(C#N)=P1(c1ccccc1)c1ccccc1

photoluminescence quantum yield (in CCCCCC): 0.21
photoluminescence quantum yield (in CO): 0.24
photoluminescence quantum yield (in ClCCl): 0.41
Structure (SMILES): CC(C)c1ccc2ccc3cccc4ccc1c2c34

photoluminescence quantum yield (in ClC(Cl)Cl): 0.14
Structure (SMILES): CCCCCCN1C(=O)c2cccc3cc(/N=C\c4ccc(N(c5ccccc5)c5ccccc5)cc4)cc(c23)C1=O

photoluminescence quantum yield (in CS(C)=O): 0.44
Structure (SMILES): COc1ccc(C2=[N+]3C(=Nc4c(C)cc(-c5ccc(OC)cc5)n4[B-]3(F)F)C(C)=C2)cc1

photoluminescence quantum yield (in CCCCCC): 0.8
photoluminescence quantum yield (in CO): 0.734
photoluminescence quantum yield (in ClCCl): 0.732
Structure (SMILES): N#Cc1ccc(C#Cc2ccc3ccc4ccc(C#Cc5ccc(C#N)cc5)c5ccc2c3c45)cc1

photoluminescence quantum yield (in ClC(Cl)Cl): 0.05
Structure (SMILES): CCCCCCN(c1ccccc1)c1ccc(/C=C/c2cc(=O)oc3cc(C)ccc23)cc1

photoluminescence quantum yield (in CC#N): 0.009
photoluminescence quantum yield (in CCCCCCC): 0.051
photoluminescence quantum yield (in CO): 0.003
photoluminescence quantum yield (in O): 0.024
Structure (SMILES): O=[N+]([O-])c1ccc(/C=C/c2c[nH]c3ccccc23)cc1

photoluminescence quantum yield (in ClC(Cl)Cl): 0.073
Structure (SMILES): CCCCCCN1C(=O)c2cccc3cc(/N=C\c4c[nH]c5c4ccc4ccccc45)cc(c23)C1=O
